Legend:
BACE1 = BACE1 (Homo sapiens, UniProt P56817); assay: BACE1 activity assay (FRET, cell-free); format: biochemical; design: purchased Pan Vera Co., Madison, Wis., USA; settings: peptide final concentration 20 μM, 90 minutes, room temperature
Method: BACE1 Activity Assay—The BACE1 inhibiting activity of APP-based BACE1 site binding peptides were determined using a fluorescence resonance energy transfer (FRET) assay (Pan Vera Co., Madison, Wis., USA), which employs a recombinant baculovirus-expressed BACE1 and a specific substrate (Rh-[…]-quencher) that is based on the APPswe mutation. This specific peptide substrate becomes highly fluorescent upon enzymatic cleavage. A mixture of 10 μL of BACE1 (1.0 U/mL in 50 mM Tris, pH7.5, 10% glycerol), 10 μL of FRET-substrate, and 10 μL of the various APP-based BACE1 site binding peptides (final concentration 20 μM) were incubated for 90 minutes in the dark at room temperature. Then, 10 μL of BACE1 stop buffer (2.5 M sodium acetate) was added to the mixture. Fluorescence was read using a fluorometer, with excitation at 545 nm and emission at 585 nm.
As a required enzyme for the generation of neurotoxic Aβ from APP, BACE1 is well established as an important mediator of AD β-amyloid pathology. As such, it has become an important target for new disease modifying therapeutics. However, since BACE1 also has important physiological roles, abolishment of the enzyme or its activity may lead to deleterious side effects as evidenced by numerous failed clinical trials discussed previously. […] Since previous studies have established a close relationship between α-helix structure and peptide-protein (or protein-protein) interactions (Azzarito, 2013; Rao et al., 2013), several APP based peptides were synthesized that might serve as a preferable substrate for BACE1. Importantly, these peptides were free of the Aβ-containing segment and, thus, cannot be amyloidogenic. In theory, these could be used to “hijack” the BACE1 processing of endogenous APP and lead to a decrease in cerebral Aβ. These BACE1 substrates and controls were incubated with recombinant BACE1 and percent of inhibition of the enzyme was calculated. […] These findings indicate that the α-helical TAT fusion domain may help to promote selective APPsweBBP proteolysis by BACE1, yielding substrate competition against human wild-type APP.

[1] = tested on: CHO cells over-expressing human Swedish mutant APP (CHO/APPswe); assay: Aβ and sAPPα production in cultured media of CHO/APPswe cells by ELISA; format: cell-based, Chinese hamster; settings: 20 μg/mL, 24 hours
Method: Cell Culture—Chinese hamster ovary (CHO) cells engineered to express wild-type human APP (CHO/APPwt cells) or Swedish mutant human APP (CHO/APPswe cells) were kindly provided by Dr. Stefanie Hahn and Dr. Sascha Weggen (University of Heinrich Heine, Dusseldorf, Germany). As described previously (Obregon et al., 2012), these cells were cultured in Dulbecco's modified Eagle's medium (DMEM) with 10% fetal bovine serum (FBS), 1 mM sodium pyruvate, and 100 units/mL of penicillin and streptomycin.
To confirm the binding of APPsweBBP with BACE1, CHO/APPwt cells were plated in 8-well chambers (5×10^5/well), incubated with TAT-APPsweBBP-biotin or APPsweBBP-biotin at 20 μM for 30 minutes, fixed with 4% paraformaldehyde for 20 minutes, washed and permeabilized with 0.5% Triton X-100. Following application of blocking buffer, these cells were stained with mouse anti-BACE1 and rabbit anti-biotin antibodies overnight at 4° C. for immunocytochemistry analysis. In order to determine the inhibitory effects of TAT-APPsweBBP on BACE1-mediated APP β-cleavage and subsequent Aβ production, both CHO/APPwt and CHO/APPswe cells were plated in 24 well-plates (3×10^5/well) and treated with TAT-APPsweBBP at 0-20 μM for 24 hours. The cultured media were collected for Aβ analysis by enzyme-linked immunosorbent assay (ELISA) and sAPPα analysis by ELISA and Western blot (WB). Cell lysates were also prepared for analysis of APP amyloidogenic processing by WB.
ELISA—Mouse brains were homogenized in ice-cold lysis buffer for 30 seconds using a Minilys tissue homogenizer (Bertin Technologies, Montigny-le-Bretonneux, France) set at high speed, allowed to stand for 15 minutes at 4° C., and centrifuged at 15,000 rpm for 30 minutes. Soluble Aβ1-40/42 species and sAPPα were directly detected in cultured cell media or brain homogenates using the Aβ1-40/42 (Invitrogen) and sAPPα ELISA kits (IBL-America, Minneapolis, Minn., USA).
To further examine the ability of the Swedish mutant APP BACE1 binding peptide/Tat fusion peptides to decrease Aβ production, CHO cells overexpressing either human wild-type APP (CHO/APPwt cells) or Swedish mutant APP (hereinafter referred to as “CHO/APPswe cells”) are treated with a variety of APP-based BACE1 inhibitor peptides, as shown in Table 1 and Table 2. Aβ production is determined using ELISA.

Sequence of BACE1 (P56817 46-501): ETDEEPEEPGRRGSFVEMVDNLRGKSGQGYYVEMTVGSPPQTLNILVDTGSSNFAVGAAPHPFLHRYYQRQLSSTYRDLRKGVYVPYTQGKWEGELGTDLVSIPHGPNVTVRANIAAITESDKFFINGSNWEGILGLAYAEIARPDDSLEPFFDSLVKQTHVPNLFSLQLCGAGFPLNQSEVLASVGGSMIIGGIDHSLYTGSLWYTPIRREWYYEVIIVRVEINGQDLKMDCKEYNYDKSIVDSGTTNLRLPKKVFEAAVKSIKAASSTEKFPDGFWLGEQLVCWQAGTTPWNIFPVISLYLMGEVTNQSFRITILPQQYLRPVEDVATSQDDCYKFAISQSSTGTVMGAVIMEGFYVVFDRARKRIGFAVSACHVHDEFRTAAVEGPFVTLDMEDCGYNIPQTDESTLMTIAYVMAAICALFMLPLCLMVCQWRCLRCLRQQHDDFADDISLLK

Q: Which results are given for YGRKKRRQRRR [TAT, reference compound]?
A: % of inhibition (mean ± SD) of BACE1 (BACE1): 3.32 ± 0.02%; Secreted Aβ40 (ng/mg; mean ± SD) [1]: 66.71 ± 12.02 ng/mg; Secreted Aβ42 (ng/mg; mean ± SD) [1]: 10.76 ± 2.12 ng/mg; Secreted sAPPα (ng/mg; mean ± SD) [1]: 196.98 ± 17.77 ng/mg

— US9926354B2, “Amyloid precursor protein (APP) based Ã#-secretase inhibitor peptides, and methods of use” (UNIVERSITY OF SOUTH FLORIDA, priority 2014, dated 2018)
